Experiment [1] has as its target Apoptosis regulator Bcl-2 (Homo sapiens, UniProt P10415). The experiment is described as follows: Fluorescence Polarization Assay (FPA): The assays were performed in black flat-bottom 384-well plates. The final assay volume was 50 μl prepared from additions of Gst-Bcl-2 (Bcl-2: GENBANK® Accession No. P10415), fluoresceinated 18-mer BIM peptide (NH2-[…]-[FAM]) (SEQ ID NO: 1), and test compounds in assay buffer consisting of 20 mM Sodium Phosphate, 1 mM EDTA, 50 mM NaCl, and 0.05% Pluronic Acid. The reaction was incubated at room temperature for 60 minutes and fluorescence polarization of the reaction was detected on the LJL Plate Reader. Inhibition data were calculated from mP values generated by the no protein control reactions for 100% inhibition and vehicle-only reactions for 0% inhibition. The final concentrations of reagents in the assay were 4.9 nM BCL-2, 5 nM fluoresceinated 18-mer BIM peptide and 1% DMSO.

Experiment [2] concerns the target Bcl-2-like protein 1 (Homo sapiens, UniProt Q07817). As to the kind of experiment: Fluorescence Resonance Energy Transfer Assay (FRET): The assays were performed in black flat-bottom 384-well plates. The final assay volume was 55 μl prepared from additions of Biotin-Bcl-xL (Bcl-xL: GENBANK® Accession No. Q07817), fluoresceinated 18-mer BIM peptide (NH2-[…]-[FAM]) (SEQ ID NO: 1), Streptavidin-Terbium FRET detection reagent, and test compounds in assay buffer consisting of 20 mM Sodium Phosphate, 1 mM EDTA, 50 mM NaCl, and 0.05% Pluronic Acid. The reaction was incubated at room temperature for 60 minutes. After 60 minutes, 5 μL of Streptavidin-Terbium FRET detection reagent (Perkin Elmer) was added to the reaction mixture and incubated at room temperature in the dark for 30 mins. The FRET signal generated by the reaction was detected on the Envision Plate Reader Inhibition data were calculated from FRET values generated by the no protein control reactions for 100% inhibition and vehicle-only reactions for 0% inhibition. The final concentration of reagents in the assay was 10 nM Bcl-xL, 5 nM fluo.

pIC50: −log10 of the molar value.

Sequence of Bcl-2-like protein 1 (Q07817 whole entry): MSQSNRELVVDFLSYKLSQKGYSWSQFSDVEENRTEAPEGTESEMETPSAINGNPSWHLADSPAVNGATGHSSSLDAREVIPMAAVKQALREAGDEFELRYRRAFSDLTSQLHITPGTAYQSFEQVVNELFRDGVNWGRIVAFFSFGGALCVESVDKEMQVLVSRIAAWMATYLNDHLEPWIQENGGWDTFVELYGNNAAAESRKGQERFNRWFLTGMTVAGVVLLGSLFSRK
Sequence of Apoptosis regulator Bcl-2 (P10415 whole entry): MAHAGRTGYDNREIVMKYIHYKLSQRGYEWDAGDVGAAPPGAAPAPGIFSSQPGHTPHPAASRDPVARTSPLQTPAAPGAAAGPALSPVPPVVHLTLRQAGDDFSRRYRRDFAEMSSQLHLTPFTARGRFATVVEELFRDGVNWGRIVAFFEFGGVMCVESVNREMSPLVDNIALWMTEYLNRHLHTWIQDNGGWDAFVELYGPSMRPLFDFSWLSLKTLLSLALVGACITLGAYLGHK

For the molecule `Cc1c(Cl)c(C(=O)NCc2ccc(-c3ccc(CC(=O)O)cc3)cc2)nn1-c1ccc(C(=O)NS(=O)(=O)c2ccc3c(c2)CCN3Cc2ccc(Cl)c(Cl)c2)cc1C(=O)N1CCc2ccccc2C1`, the pIC50 was 7.30 in experiment [1] and 5.09 in experiment [2].
With `CCCCN(CCCC)C(=O)c1cn(CCN2CCOCC2)c(-c2ccc(C(=O)NS(=O)(=O)c3ccc4ccccc4c3)cc2C(=O)N2Cc3ccccc3C[C@H]2CO)n1`, the negative logarithm of the IC50 (pIC50) in experiment [1] was 6.92; in experiment [2], 7.22.
As to `CCCCN(CCCC)C(=O)c1cn(CCCN(C)C)c(-c2ccc(C(=O)NS(=O)(=O)c3ccc4ccccc4c3)cc2C(=O)N2CCc3ccccc3C2)n1`, the negative logarithm of the IC50 (pIC50) in experiment [1] is 6.70; in experiment [2] it was 7.52.

As a reminder, the pIC50 is the IC50 on a negative log10 scale, so that one unit is a factor of ten.

(Values after ChEMBL document CHEMBL3886736, “Substituted sulfonamides useful as antiapoptotic Bcl inhibitors” (2016).)
